Measured values published in ChEMBL document CHEMBL2384934, “Discovery of 3-phenyl-1H-5-pyrazolylamine derivatives containing a urea pharmacophore as potent and efficacious inhibitors of FMS-like tyrosine kinase-3 (FLT3)” (Bioorg Med Chem, 2013).
The source made the active and inactive calls. The rule behind the calls is not given here.

Experiments:
[1] = molecular target: Receptor-type tyrosine-protein kinase FLT3 (Homo sapiens) (UniProt P36888); assay: Inhibition of FLT3 (unknown origin) at 1 uM
Chain of Receptor-type tyrosine-protein kinase FLT3 (Homo sapiens) (P36888 whole entry): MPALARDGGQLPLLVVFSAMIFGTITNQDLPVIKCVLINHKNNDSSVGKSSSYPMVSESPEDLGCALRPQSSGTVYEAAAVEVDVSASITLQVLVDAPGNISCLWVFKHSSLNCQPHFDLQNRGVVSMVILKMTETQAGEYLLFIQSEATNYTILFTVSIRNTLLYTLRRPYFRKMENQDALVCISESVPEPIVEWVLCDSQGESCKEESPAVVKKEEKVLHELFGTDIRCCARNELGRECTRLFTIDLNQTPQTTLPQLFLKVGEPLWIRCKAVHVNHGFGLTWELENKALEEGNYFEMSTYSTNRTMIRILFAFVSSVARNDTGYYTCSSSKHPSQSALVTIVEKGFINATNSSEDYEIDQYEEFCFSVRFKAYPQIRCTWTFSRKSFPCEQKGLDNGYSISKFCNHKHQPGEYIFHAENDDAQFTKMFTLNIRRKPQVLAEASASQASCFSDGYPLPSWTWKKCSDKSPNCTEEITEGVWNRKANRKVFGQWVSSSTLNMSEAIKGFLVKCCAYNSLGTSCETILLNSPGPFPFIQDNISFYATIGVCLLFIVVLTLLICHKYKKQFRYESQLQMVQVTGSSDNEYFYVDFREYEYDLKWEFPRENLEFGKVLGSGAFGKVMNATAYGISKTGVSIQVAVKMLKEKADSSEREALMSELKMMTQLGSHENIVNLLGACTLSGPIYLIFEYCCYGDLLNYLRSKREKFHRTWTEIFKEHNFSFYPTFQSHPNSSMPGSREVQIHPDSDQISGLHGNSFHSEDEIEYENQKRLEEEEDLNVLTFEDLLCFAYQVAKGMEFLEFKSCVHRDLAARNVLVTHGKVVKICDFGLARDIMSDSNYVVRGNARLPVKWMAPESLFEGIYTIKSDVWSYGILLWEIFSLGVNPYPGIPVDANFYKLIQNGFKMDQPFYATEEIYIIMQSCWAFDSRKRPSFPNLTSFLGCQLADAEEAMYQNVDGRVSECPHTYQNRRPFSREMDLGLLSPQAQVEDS

cells = conditions: Homo sapiens, RS4-11, 72 h
Description: Cytotoxicity against human RS4:11 cells harboring wild type FLT3 after 72 hrs by MTS assay

[2] = molecular target: T1, Receptor-type tyrosine-protein kinase FLT3 (Homo sapiens, UniProt P36888, ITD); assay: Inhibition of FLT3/ITD mutant phosphorylation in human MV4-11 cells after 1 hr by Western blot analysis; type: cell-based
T1 sequence (P36888 whole entry, looked up, change not shown): as the sequence (P36888 whole entry) above

[3] = molecular target: Vascular endothelial growth factor receptor 3 (Homo sapiens) (UniProt P35916); assay: Inhibition of FLT4 (unknown origin) at 1 uM by kinase Glo assay
MOLM-13 [4] = assay: Antitumor activity against human MOLM13 cells xenografted in nu/nu mouse at 10 mg/kg, iv qd administered on days 1 to 5 and day 8 to 12 measured after 48 days; type: functional; conditions: read-out: TGI
[5] = molecular target: Receptor tyrosine-protein kinase erbB-2 (Homo sapiens) (UniProt P04626); assay: Inhibition of ERBB2 (unknown origin) at 1 uM
[6] = molecular target: Tyrosine-protein kinase ABL1 (Homo sapiens) (UniProt P00519); assay: Inhibition of ABL1 (unknown origin) at 1 uM
Chain of Tyrosine-protein kinase ABL1 (Homo sapiens) (P00519 whole entry): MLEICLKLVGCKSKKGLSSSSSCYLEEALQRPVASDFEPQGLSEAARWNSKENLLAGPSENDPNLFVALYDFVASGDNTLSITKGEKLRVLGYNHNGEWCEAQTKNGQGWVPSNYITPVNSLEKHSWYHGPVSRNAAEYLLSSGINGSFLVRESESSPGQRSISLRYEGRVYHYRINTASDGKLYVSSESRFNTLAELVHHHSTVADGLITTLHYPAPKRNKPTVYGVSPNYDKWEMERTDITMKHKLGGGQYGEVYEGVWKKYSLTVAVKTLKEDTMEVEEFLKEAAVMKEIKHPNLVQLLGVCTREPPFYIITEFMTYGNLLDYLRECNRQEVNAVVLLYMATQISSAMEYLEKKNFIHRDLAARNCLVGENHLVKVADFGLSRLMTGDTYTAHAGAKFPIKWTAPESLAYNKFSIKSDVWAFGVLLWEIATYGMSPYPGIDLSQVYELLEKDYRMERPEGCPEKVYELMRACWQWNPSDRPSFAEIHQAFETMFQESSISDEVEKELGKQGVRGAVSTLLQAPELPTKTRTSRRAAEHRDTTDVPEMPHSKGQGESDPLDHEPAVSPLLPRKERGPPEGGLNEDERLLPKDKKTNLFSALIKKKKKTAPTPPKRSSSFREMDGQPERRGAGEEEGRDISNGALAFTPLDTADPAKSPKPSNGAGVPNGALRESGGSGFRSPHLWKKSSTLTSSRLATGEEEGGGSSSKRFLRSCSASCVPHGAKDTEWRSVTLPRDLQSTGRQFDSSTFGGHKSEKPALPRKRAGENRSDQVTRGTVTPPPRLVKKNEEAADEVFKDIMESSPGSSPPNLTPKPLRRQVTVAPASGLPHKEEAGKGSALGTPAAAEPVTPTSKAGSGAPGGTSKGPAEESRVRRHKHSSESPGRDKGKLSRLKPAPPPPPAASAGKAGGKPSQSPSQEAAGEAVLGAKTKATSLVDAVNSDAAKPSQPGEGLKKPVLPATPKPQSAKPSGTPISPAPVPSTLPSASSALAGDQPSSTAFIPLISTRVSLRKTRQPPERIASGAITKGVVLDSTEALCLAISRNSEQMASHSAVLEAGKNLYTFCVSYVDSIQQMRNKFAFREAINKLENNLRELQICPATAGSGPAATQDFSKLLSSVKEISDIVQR

[7] = molecular target: Tyrosine-protein kinase JAK3 (Homo sapiens) (UniProt P52333); assay: Inhibition of JAK3 (unknown origin) at 1 uM
[8] = molecular target: Fibroblast growth factor receptor 1 (Homo sapiens) (UniProt P11362); assay: Inhibition of FGFR1 (unknown origin) at 1 uM
[9] = molecular target: Macrophage colony-stimulating factor 1 receptor (Homo sapiens) (UniProt P07333); assay: Inhibition of CSF1R (unknown origin) at 1 uM
[10] = molecular target: Tyrosine-protein kinase JAK2 (Homo sapiens) (UniProt O60674); assay: Inhibition of JAK2 (unknown origin) at 1 uM
Chain of Tyrosine-protein kinase JAK2 (Homo sapiens) (O60674 whole entry): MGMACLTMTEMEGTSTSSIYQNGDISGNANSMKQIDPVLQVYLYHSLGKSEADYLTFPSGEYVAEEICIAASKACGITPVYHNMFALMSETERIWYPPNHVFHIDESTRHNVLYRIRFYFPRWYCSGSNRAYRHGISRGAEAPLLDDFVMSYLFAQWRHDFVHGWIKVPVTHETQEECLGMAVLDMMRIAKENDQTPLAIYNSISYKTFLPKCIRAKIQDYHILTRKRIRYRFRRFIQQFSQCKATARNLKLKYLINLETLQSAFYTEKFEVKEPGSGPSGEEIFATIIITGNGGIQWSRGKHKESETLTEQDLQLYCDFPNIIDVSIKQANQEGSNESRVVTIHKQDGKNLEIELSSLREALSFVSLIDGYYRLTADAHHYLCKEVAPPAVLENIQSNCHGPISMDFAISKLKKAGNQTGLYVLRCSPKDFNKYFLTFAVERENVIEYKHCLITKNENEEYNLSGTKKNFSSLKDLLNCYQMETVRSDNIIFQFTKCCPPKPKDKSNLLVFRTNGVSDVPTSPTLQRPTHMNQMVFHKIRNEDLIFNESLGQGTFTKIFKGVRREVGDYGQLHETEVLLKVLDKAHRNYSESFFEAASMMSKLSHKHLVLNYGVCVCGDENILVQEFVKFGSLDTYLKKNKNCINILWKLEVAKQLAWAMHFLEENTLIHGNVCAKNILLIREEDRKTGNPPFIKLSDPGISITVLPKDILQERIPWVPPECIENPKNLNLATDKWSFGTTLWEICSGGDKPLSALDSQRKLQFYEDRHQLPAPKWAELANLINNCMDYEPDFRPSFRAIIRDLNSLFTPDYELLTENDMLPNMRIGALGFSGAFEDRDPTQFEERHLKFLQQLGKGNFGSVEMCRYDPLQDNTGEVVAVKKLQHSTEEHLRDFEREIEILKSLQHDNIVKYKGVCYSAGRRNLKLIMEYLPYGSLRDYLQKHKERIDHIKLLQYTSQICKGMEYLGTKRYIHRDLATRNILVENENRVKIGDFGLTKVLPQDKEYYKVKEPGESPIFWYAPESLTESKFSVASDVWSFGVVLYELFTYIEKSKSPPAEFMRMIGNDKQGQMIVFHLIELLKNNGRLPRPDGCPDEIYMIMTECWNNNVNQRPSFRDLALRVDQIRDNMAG

Aurora kinase A = molecular target: T2, Aurora kinase A (Homo sapiens, UniProt O14965); assay: biochemical
T2 sequence (O14965 whole entry): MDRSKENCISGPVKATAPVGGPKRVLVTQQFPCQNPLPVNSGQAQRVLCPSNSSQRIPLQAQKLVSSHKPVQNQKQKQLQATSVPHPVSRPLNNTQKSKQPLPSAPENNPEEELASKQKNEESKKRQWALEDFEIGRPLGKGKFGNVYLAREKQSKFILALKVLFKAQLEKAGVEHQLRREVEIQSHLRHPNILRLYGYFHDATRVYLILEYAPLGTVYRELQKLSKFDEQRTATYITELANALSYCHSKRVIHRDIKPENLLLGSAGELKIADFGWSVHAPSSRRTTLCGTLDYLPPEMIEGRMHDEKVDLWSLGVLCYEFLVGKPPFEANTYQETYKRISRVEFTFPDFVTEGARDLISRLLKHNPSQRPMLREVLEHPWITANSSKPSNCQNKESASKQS
Description: Inhibition of recombinant GST tagged Aurora A kinase (123 to 401) (unknown origin) transfected in insect sf9 cells after 90 mins by wallac counting analysis

MV4-11 = assay: Cytotoxicity against human MV4-11 cells harboring FLT3/ITD mutant after 72 hrs by MTS assay; type: functional; conditions: MV4-11, 72 h
MOLM-13 [11] = assay: cells; conditions: Homo sapiens, MOLM-13, 72 h
[12] = molecular target: Platelet-derived growth factor receptor beta (Homo sapiens) (UniProt P09619); assay: Inhibition of PDGFRB (unknown origin) at 1 uM by kinase Glo assay
MOLM-13 [13] = assay: Antitumor activity against human MOLM13 cells xenografted in nu/nu mouse at 1mg/kg, iv qd administered on days 1 to 5 and days 8 to 12 measured for 5 days; type: functional, organism-based
[14] = molecular target: Platelet-derived growth factor receptor alpha (Homo sapiens) (UniProt P16234); assay: Inhibition of PDGFRA (unknown origin) at 1 uM by kinase Glo assay
U-937 = assay: cells; conditions: Homo sapiens, U-937, 72 h
Description: Cytotoxicity against human FLT3 negative U937 cells after 72 hrs by MTS assay

[15] = molecular target: T3, Vascular endothelial growth factor receptor 2 (Homo sapiens, UniProt P35968); assay: biochemical; type: cell-based, Sf9
T3 sequence (P35968 whole entry): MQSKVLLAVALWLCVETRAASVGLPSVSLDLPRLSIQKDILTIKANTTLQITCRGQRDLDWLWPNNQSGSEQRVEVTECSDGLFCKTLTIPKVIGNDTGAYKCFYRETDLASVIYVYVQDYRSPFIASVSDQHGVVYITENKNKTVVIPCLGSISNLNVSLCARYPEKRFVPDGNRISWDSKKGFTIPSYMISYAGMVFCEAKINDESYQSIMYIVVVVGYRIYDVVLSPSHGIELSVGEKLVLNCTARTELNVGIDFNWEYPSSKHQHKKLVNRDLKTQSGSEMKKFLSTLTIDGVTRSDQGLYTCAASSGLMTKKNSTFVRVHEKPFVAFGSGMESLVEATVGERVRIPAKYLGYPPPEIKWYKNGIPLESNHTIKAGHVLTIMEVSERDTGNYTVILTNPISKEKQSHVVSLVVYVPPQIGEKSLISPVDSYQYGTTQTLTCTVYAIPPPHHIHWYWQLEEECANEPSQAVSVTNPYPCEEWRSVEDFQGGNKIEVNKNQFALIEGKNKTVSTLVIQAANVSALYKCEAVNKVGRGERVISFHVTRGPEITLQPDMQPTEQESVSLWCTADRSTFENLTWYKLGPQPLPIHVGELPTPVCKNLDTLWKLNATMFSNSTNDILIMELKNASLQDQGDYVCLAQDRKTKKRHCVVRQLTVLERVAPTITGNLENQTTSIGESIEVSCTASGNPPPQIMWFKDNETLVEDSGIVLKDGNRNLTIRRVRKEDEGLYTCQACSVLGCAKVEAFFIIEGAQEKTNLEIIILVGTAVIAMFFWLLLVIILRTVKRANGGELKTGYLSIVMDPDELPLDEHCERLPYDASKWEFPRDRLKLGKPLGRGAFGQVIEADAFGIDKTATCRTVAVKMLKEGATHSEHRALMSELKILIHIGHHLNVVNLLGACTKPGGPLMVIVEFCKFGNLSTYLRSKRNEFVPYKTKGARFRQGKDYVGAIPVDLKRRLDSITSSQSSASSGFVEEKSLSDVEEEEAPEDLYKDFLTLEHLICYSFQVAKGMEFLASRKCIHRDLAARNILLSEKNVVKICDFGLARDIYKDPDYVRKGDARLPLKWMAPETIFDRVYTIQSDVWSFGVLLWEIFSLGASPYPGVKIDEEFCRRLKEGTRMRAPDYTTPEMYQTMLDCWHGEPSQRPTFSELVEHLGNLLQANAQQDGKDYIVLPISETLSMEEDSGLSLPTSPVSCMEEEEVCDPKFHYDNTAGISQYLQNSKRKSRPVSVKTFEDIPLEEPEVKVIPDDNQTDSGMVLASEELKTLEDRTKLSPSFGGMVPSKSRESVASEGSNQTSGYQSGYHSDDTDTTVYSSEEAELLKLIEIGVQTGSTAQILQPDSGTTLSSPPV
Description: Inhibition of recombinant GST tagged VEGFR2 (789 to 1356) (unknown origin) transfected in insect sf9 cells after 120 mins by wallac counting analysis

[16] = Plasma clearance in Sprague-Dawley rat at 2 mg/kg, iv; type: ADME, organism-based; set-up: dose 2 mg/kg, route intravenous
[17] = molecular target: T3, Vascular endothelial growth factor receptor 2; assay: Inhibition of KDR (unknown origin) at 1 uM by kinase Glo assay
[18] = molecular target: Ribosomal protein S6 kinase beta-1 (Homo sapiens) (UniProt P23443); assay: Inhibition of RPS6KB1 (unknown origin) at 1 uM
MOLM-13 [19] = assay: Antitumor activity against human MOLM13 cells xenografted in nu/nu mouse at 1mg/kg, iv qd administered on days 1 to 5 and days 8 to 12 measured on day 11; type: functional; conditions: MOLM-13, iv, 264 h, read-out: TGI
[20] = molecular target: Serine/threonine-protein kinase Chk2 (Homo sapiens) (UniProt O96017); assay: Inhibition of CHK2 (unknown origin) at 1 uM by kinase Glo assay
[21] = AUC (0 to infinity) in Sprague-Dawley rat at 2 mg/kg, iv; type: ADME, organism-based; set-up: time infinity, dose 2 mg/kg, route intravenous; conditions: plasma
K562 = assay: cells; conditions: Homo sapiens, K562, 72 h
Description: Cytotoxicity against human FLT3-negative K562 cells harboring wild type BCR/ABL after 72 hrs by MTS assay

[22] = molecular target: Serine/threonine-protein kinase MRCK alpha (Homo sapiens) (UniProt Q5VT25); assay: Inhibition of MRCKA (unknown origin) at 1 uM
Mus musculus [23] = assay: Toxicity in mouse assessed as mortality at 25 mg/kg, iv for 5 days; type: organism-based; set-up: dose 25 mg/kg, route intravenous; conditions: in vivo, 120 h
MOLM-13 [24] = assay: Antitumor activity against human MOLM13 cells xenografted in nu/nu mouse at 10 mg/kg, iv qd administered on days 1 to 5 and days 8 to 12 measured on day 16; type: functional; conditions: MOLM-13, 384 h, read-out: TGI
MOLM-13 [25] = assay: Antitumor activity against human MOLM13 cells xenografted in nu/nu mouse at 3 mg/kg, iv qd administered on days 1 to 5 and days 8 to 12; type: functional, organism-based; set-up: dose 3 mg/kg
[26] = molecular target: CDK2/Cyclin A2 (Homo sapiens) (UniProt P24941+P20248); assay: Inhibition of CDK2/cyclin A (unknown origin) at 1 uM; type: protein-complex assay
Mus musculus [27] = assay: Toxicity in nu/nu mouse xenografted with human MOLM13 cells at 1 to 10 mg/kg, iv qd administered on days 1 to 5 and day 8 to 12; type: organism-based, MOLM-13; set-up: route intravenous; conditions: in vivo
[28] = Volume of distribution at steady state in Sprague-Dawley rat at 2 mg/kg, iv; type: ADME, organism-based; set-up: dose 2 mg/kg, route intravenous; conditions: in vivo, read-out: Vdss
[29] = molecular target: Hepatocyte growth factor receptor (Homo sapiens) (UniProt P08581); assay: Inhibition of MET (unknown origin) at 1 uM by kinase Glo assay
[30] = Oral bioavailability in Sprague-Dawley rat at 10 mg/kg; type: ADME, organism-based; conditions: in vivo
[31] = molecular target: Macrophage-stimulating protein receptor (Homo sapiens) (UniProt Q04912); assay: Inhibition of MST1R (unknown origin) at 1 uM
[32] = molecular target: T1, Receptor-type tyrosine-protein kinase FLT3; assay: Inhibition of FLT3/ITD mutant-mediated stat5 phosphorylation in human MV4-11 cells after 1 hr by Western blot analysis; type: cell-based

Work on `CC(C)(C)c1cc(NC(=O)NCc2ccc(-c3cc(NC(=O)c4ccc(OCCN5CCOCC5)cc4)[nH]n3)cc2)no1` yielded an inhibition [1] of 100%, a GI50 (cells) of 900 nM and an IC50 [2] of 1 nM. For the same compound, the inhibition [3] was 86%, the inhibition in vivo at 10 mg/kg (MOLM-13 [4]) was 70% and the inhibition [5] was -1%. For the same compound, the inhibition [6] was 21%, the inhibition [7] was 27% and the inhibition [8] was 48%. It also gave an inhibition [9] of 95%, an inhibition [10] of 79% and an IC50 (Aurora kinase A) greater than 1000 nM. The GI50 (MV4-11) was 2 nM, the GI50 (MOLM-13 [11]) was 3 nM and the inhibition [12] was 97%. For the same compound, the inhibition (MOLM-13 [13]) was “Active”, the inhibition [14] was 85% and the GI50 (U-937) was greater than 20000 nM. For the same compound, the IC50 [15] was 28 nM, the clearance [16] was 10.7 mL/min/kg and the inhibition [17] was 99%. The inhibition [18] was 41%, the inhibition in vivo at 1 mg/kg (MOLM-13 [19]) was 66% and the inhibition [20] was 10%. For the same compound, the AUC(0-inf) [21] was 3140 ng·h/mL, the GI50 (K562) was 11800 nM and the inhibition [22] was -2%. For the same compound, the Activity (Mus musculus [23]) was “Non-toxic”, the inhibition in vivo at 10 mg/kg (MOLM-13 [24]) was 84% and the inhibition (MOLM-13 [25]) was “Active”. For the same compound, the inhibition [26] was 5%, the Activity (Mus musculus [27]) was “Non-toxic” and the Vd [28] was 3.6 L/kg. For the same compound, the inhibition [29] was 40%, the bioavailability [30] was 1% and the inhibition [31] was 13%. For the same compound, the IC50 [32] was 1 nM.
